In patent publication US6737383B1, “Herbicidal oxadiazolidines” (priority 1999, dated 2004):

What was measured:
[1] = test system: giant foxtail; assay: Test B pre/postemergence giant foxtail; type: in vivo, Setaria faberii
Procedure, shortened: (§1)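 Response is a visual 0-to-10 score relative to untreated plants, where 0 means no effect and 10 means complete control, taken twelve to sixteen days after application. Treatments went onto soil at planting and onto foliage of 1- to 4-leaf plants, using a surfactant-containing non-phytotoxic solvent.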

[2] = test system: duck salad; assay: Test B flood test duck salad; type: in vivo, Heteranthera limosa; conditions: for Plant response rating, Ducksalad (0 to 10 scale, 0 is no effect, 10 is complete control): Rate 62 g/ha; for Plant response rating, Ducksalad (0 to 10 scale, 0 is no effect, 10 is complete control) / Ducksalad plant response rating (0 to 10 scale, 0 is no effect, 10 is complete control): visual evaluation after twelve to sixteen days; for Ducksalad plant response rating (0 to 10 scale, 0 is no effect, 10 is complete control): Rate 125 g/ha, under heading Pre-emergence
Procedure, shortened: (§2)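 Flood test on plants grown to the 2-leaf stage; treated plants kept in greenhouse twelve to sixteen days, then visually rated against controls on a 0 (no effect) to 10 (complete control) scale.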

[3] = test system: morningglory; assay: Test B pre/postemergence morningglory; type: in vivo, Ipomoea hederacea
Procedure, shortened: as §1

[4] = test system: rice; assay: Test B flood test rice; type: in vivo, Oryza sativa; conditions: for Plant response rating, Rice (0 to 10 scale, 0 is no effect, 10 is complete control): Rate 62 g/ha; for Plant response rating, Rice (0 to 10 scale, 0 is no effect, 10 is complete control) / Rice plant response rating (0 to 10 scale, 0 is no effect, 10 is complete control): visual evaluation after twelve to sixteen days; for Rice plant response rating (0 to 10 scale, 0 is no effect, 10 is complete control): Rate 125 g/ha, under heading Pre-emergence
Procedure, shortened: as §2

[5] = Postemergence, Rate 250 g/ha, scale 0 to 10, 0 is no effect, 10 is complete control
[6] = Postemergence, Rate 500 g/ha, scale of 0 to 10 where 0 is no effect and 10 is complete control
[7] = Preemergence, Rate 62 g/ha, scale 0 to 10 (0 no effect, 10 complete control)
[8] = Preemergence, Rate 125 g/ha, scale of 0 to 10 where 0 is no effect and 10 is complete control
[9] = Preemergence, Rate 250 g/ha, scale of 0 to 10 where 0 is no effect and 10 is complete control
[10] = Preemergence, Rate 500 g/ha, scale of 0 to 10 where 0 is no effect and 10 is complete control
[11] = Rate 62 g/ha, Postemergence, scale of 0 to 10 where 0 is no effect and 10 is complete control
[12] = flood test species, Pre-emergence
[13] = Rate 250 g/ha, Pre-emergence, flood-test species, scale 0 to 10, 0 is no effect, 10 is complete control
[14] = Rate 500 g/ha, Pre-emergence, flood test species, scale 0 to 10 (0 no effect, 10 complete control)
[15] = Postemergence, Rate 250 g/ha, scale 0 to 10
[16] = Preemergence, Rate 62 g/ha, scale of 0 to 10 where 0 is no effect and 10 is complete control
[17] = Preemergence, Rate 250 g/ha, scale 0 to 10, 0 is no effect, 10 is complete control
[18] = Preemergence, Rate 500 g/ha, scale 0 to 10, 0 is no effect, 10 is complete control
[19] = Rate 62 g/ha, Postemergence, scale 0 to 10, 0 no effect, 10 complete control
[20] = Rate 125 g/ha, Postemergence, scale 0 to 10, 0 is no effect, 10 is complete control
[21] = Rate 250 g/ha, Pre-emergence (flood test species), scale 0 to 10, 0 is no effect, 10 is complete control
[22] = Postemergence, Rate 62 g/ha, scale 0 to 10, 0 is no effect, 10 is complete control
[23] = Postemergence, Rate 125 g/ha, scale of 0 to 10 where 0 is no effect and 10 is complete control
[24] = Postemergence, Rate 250 g/ha, scale of 0 to 10, 0 is no effect, 10 is complete control
[25] = Preemergence, Rate 250 g/ha, scale 0 to 10 (0 no effect, 10 complete control)
[26] = Rate 500 g/ha, Pre-emergence section of Table B, 0 to 10 scale (0 no effect, 10 complete control)

## CC(C)N(C(=O)n1oc(=O)[nH]c1=O)c1ccc(F)cc1F [Compound 391]
[1]; Postemergence, Rate 125 g/ha, scale 0 to 10, 0 is no effect, 10 is complete control
  Plant response rating, Giant foxtail: 0
[1]; [5]
  Plant response rating, Giant foxtail: 0
[1]; [6]
  Giant foxtail plant response rating: 0
[1]; [7]
  Plant response rating, Giant foxtail: 0
[1]; [8]
  Plant response rating, Giant foxtail: 0
[1]; [9]
  Giant foxtail plant response rating: 0
[1]; [10]
  Giant foxtail plant response rating: 0
[1]; [11]
  Giant foxtail plant response rating: 0
[2]; [12]
  Plant response rating, Ducksalad (0 to 10 scale, 0 is no effect, 10 is complete control): 0
[2]; flood test species
  Ducksalad plant response rating (0 to 10 scale, 0 is no effect, 10 is complete control): 0
[2]; [13]
  Ducksalad plant response rating: 0
[2]; [14]
  Ducksalad plant response rating: 0
[3]; [5]
  Plant response rating, Morningglory: 0
[3]; [6]
  Morningglory plant response rating: 0
[3]; [7]
  Plant response rating, Morningglory: 0
[3]; [8]
  Plant response rating, Morningglory: 0
[3]; [9]
  Morningglory plant response rating: 0
[3]; [10]
  Morningglory plant response rating: 0
[3]; [11]
  Morningglory plant response rating: 0
[4]; [12]
  Plant response rating, Rice (0 to 10 scale, 0 is no effect, 10 is complete control): 0
[4]; flood test species
  Rice plant response rating (0 to 10 scale, 0 is no effect, 10 is complete control): 0
[4]; [13]
  Rice plant response rating: 0
[4]; [14]
  Rice plant response rating: 0

## CC(C)N(C(=O)n1oc(=O)n(CCl)c1=O)c1ccc(F)cc1F [Compound 437]
[1]; [15]
  Giant foxtail plant response rating: 0
[1]; [6]
  Giant foxtail plant response rating: 7
[1]; [16]
  Plant response rating, Giant foxtail: 0
[1]; [8]
  Plant response rating, Giant foxtail: 0
[1]; [17]
  Giant foxtail plant response rating: 0
[1]; [18]
  Giant foxtail plant response rating: 3
[1]; [19]
  Giant foxtail plant response rating: 0
[1]; [20]
  Giant foxtail plant response rating: 0
[2]; [12]
  Plant response rating, Ducksalad (0 to 10 scale, 0 is no effect, 10 is complete control): 0
[2]; flood test species
  Ducksalad plant response rating (0 to 10 scale, 0 is no effect, 10 is complete control): 0
[2]; [21]
  Ducksalad plant response rating: 0
[2]; [14]
  Ducksalad plant response rating: 0
[3]; [15]
  Morningglory plant response rating: 4
[3]; [6]
  Morningglory plant response rating: 9
[3]; [16]
  Plant response rating, Morningglory: 0
[3]; [8]
  Plant response rating, Morningglory: 0
[3]; [17]
  Morningglory plant response rating: 0
[3]; [18]
  Morningglory plant response rating: 0
[3]; [19]
  Morningglory plant response rating: 0
[3]; [20]
  Morningglory plant response rating: 1
[4]; [12]
  Plant response rating, Rice (0 to 10 scale, 0 is no effect, 10 is complete control): 0
[4]; flood test species
  Rice plant response rating (0 to 10 scale, 0 is no effect, 10 is complete control): 0
[4]; [21]
  Rice plant response rating: 0
[4]; [14]
  Rice plant response rating: 0

## CC(=O)N(C)CCn1c(=O)on(C(=O)N(c2ccc(F)cc2)C(C)C)c1=O [Compound 625]
[1]; [22]
  Plant response rating, Giant foxtail: 0
[1]; [23]
  Plant response rating, Giant foxtail: 3
[1]; [24]
  Giant foxtail plant response rating: 5
[1]; [6]
  Plant response rating, Giant foxtail: 9
[1]; [7]
  Giant foxtail plant response rating: 6
[1]; [8]
  Giant foxtail plant response rating: 9
[1]; [25]
  Plant response rating, Giant foxtail: 10
[1]; [10]
  Plant response rating, Giant foxtail: 10
[2]; [12]
  Plant response rating, Ducksalad (0 to 10 scale, 0 is no effect, 10 is complete control): 0
[2]; flood test species
  Ducksalad plant response rating (0 to 10 scale, 0 is no effect, 10 is complete control): 0
[2]; [21]
  Ducksalad plant response rating: 0
[2]; [26]
  Ducksalad plant response rating: 0
[3]; [22]
  Plant response rating, Morningglory: 0
[3]; [23]
  Plant response rating, Morningglory: 1
[3]; [24]
  Morningglory plant response rating: 1
[3]; [6]
  Plant response rating, Morningglory: 2
[3]; [7]
  Morningglory plant response rating: 0
[3]; [8]
  Morningglory plant response rating: 0
[3]; [25]
  Plant response rating, Morningglory: 2
[3]; [10]
  Plant response rating, Morningglory: 3
[4]; [12]
  Plant response rating, Rice (0 to 10 scale, 0 is no effect, 10 is complete control): 0
[4]; flood test species
  Rice plant response rating (0 to 10 scale, 0 is no effect, 10 is complete control): 0
[4]; [21]
  Rice plant response rating: 0
[4]; [26]
  Rice plant response rating: 0

## CC(=O)NCn1c(=O)on(C(=O)N(c2ccccc2)C(C)C)c1=O [Compound 621]
[1]; [22]
  Plant response rating, Giant foxtail: 0
[1]; [23]
  Plant response rating, Giant foxtail: 0
[1]; [24]
  Giant foxtail plant response rating: 1
[1]; [6]
  Plant response rating, Giant foxtail: 7
[1]; [7]
  Giant foxtail plant response rating: 0
[1]; [8]
  Giant foxtail plant response rating: 7
[1]; [25]
  Plant response rating, Giant foxtail: 7
[1]; [10]
  Plant response rating, Giant foxtail: 10
[2]; [12]
  Plant response rating, Ducksalad (0 to 10 scale, 0 is no effect, 10 is complete control): 0
[2]; flood test species
  Ducksalad plant response rating (0 to 10 scale, 0 is no effect, 10 is complete control): 0
[2]; [21]
  Ducksalad plant response rating: 0
[2]; [26]
  Ducksalad plant response rating: 0
[3]; [22]
  Plant response rating, Morningglory: 1
[3]; [23]
  Plant response rating, Morningglory: 2
[3]; [24]
  Morningglory plant response rating: 2
[3]; [6]
  Plant response rating, Morningglory: 8
[3]; [7]
  Morningglory plant response rating: 0
[3]; [8]
  Morningglory plant response rating: 0
[3]; [25]
  Plant response rating, Morningglory: 0
[3]; [10]
  Plant response rating, Morningglory: 0
[4]; [12]
  Plant response rating, Rice (0 to 10 scale, 0 is no effect, 10 is complete control): 0
[4]; flood test species
  Rice plant response rating (0 to 10 scale, 0 is no effect, 10 is complete control): 0
[4]; [21]
  Rice plant response rating: 0
[4]; [26]
  Rice plant response rating: 0
